According to US20260191968A1, “PROTAC DEGRADERS OF MLLT1 AND/OR MLLT3” (DARK BLUE THERAPEUTICS LTD, priority 2024, published 2026):

Key:
[1] = tested on: MV4-11 cells; experiment: MV4-11 cellular proliferative assay, Assay Format B (CTG 2.0, 168 h); assay type: cell-based; settings: Homo sapiens, 168 h (7 days), CTG 2.0, read-out: IC50 (MV4-11 cellular proliferative assay, Assay format B)
Protocol: MV4-11 cells at a confluency of ~50-80% was used for cell growth assay. 600 cells/well in a 384-well opaque cell culture plate (6007680; Perkin Elmer) were seeded in 40 μL of complete medium (IMDM+10% FBS+1X Penicillin-Streptomycin). Cells were incubated overnight at 37° C., 5% CO2. 10 mM DMSO stocks were prepared, cells were treated with 10 concentrations of test compounds starting from 1 uM or 100 nM, 3-fold dilution in 10 uL (5×concentration) of complete medium. Final DMSO concentration was 0.3%. Culture plates were centrifuged at 40×g, 30s. Cells were incubated with compounds for 168 h (7 days). After 7 days, 20 uL CTG 2.0 reagent (G9242; Promega) was added per well and luminescence reading was taken in Envision Xcite 2105 multimode plate reader. Data was analyzed in GraphPad Prism 10.0 and data was shown as % viability with respect to DMSO control and dose-response curves were generated using four parameter logistic regression. Assay quality was determined by z-factor calculation using positive and negative controls.

[2] = biological target: T1, MLLT1 (Homo sapiens, UniProt Q03111); experiment: MLLT1 degradation assay in MV4-11 cells (JESS chemiluminescent detection), three concentrations, 24 h; assay type: cell-based; settings: with respect to DMSO control
T1 construct: host or cells: MV4-11
T1 sequence (Q03111 1-559): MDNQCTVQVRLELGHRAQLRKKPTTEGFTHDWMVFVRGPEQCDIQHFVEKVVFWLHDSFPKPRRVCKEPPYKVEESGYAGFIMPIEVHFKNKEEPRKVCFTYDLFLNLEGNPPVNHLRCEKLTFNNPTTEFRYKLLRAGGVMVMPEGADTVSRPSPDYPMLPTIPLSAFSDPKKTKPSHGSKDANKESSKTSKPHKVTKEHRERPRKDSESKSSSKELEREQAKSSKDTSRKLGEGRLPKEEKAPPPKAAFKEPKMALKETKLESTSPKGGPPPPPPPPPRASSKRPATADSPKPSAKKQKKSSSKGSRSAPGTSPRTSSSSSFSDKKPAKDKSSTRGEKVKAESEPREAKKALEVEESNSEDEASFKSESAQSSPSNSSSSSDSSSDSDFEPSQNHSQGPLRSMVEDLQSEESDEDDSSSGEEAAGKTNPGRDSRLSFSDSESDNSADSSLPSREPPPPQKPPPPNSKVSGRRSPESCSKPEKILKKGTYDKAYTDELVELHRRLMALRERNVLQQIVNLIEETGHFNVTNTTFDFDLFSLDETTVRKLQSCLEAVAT
Summary of the method: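 Read-out is % MLLT1 degradation versus DMSO, from band peak areas on a JESS chemiluminescent system. Cells (MV4-11) were exposed for 24 h at 37° C to three compound levels, 10, 100 and 1000 nM, in 0.1% DMSO.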

| Structure (SMILES) | IC50 [1] [nM] | MLLT1% Degradation @ 0.01 μM [2] | MLLT1% Degradation @ 0.1 μM [2] | MLLT1% Degradation @ 1 μM [2] |
| --- | --- | --- | --- | --- |
| CN1CCC[C@@H]1c1cc2cnc(NC(=O)c3ccc(N4CCC(OC5CCN(c6cccc7c6CN(C6CCC(=O)NC6=O)C7=O)CC5)CC4)cc3)cc2[nH]1 (stereo partly drawn) [Example 137, 4-(4-((1-(2-(2,6-dioxopiperidin-3-yl)-1-oxoisoindolin-4-yl)piperidin-4-yl)oxy)piperidin-1-yl)-N-(2-((R)-1-methylpyrrolidin-2-yl)-1H-pyrrolo[3,2-c]pyridin-6-yl)benzamide] | ≤ 100 | A (Category A: A ≥ 75% degradation) | A (Category A: A ≥ 75% degradation) | A (Category A: A ≥ 75% degradation) |
| CN1CCC[C@@H]1c1cc2cnc(NC(=O)c3ccc(OCCC4CCN(c5cccc6c5CN(C5CCC(=O)NC5=O)C6=O)CC4)nc3)cc2[nH]1 (stereo partly drawn) [Example 158, 6-(2-(1-(2-(2,6-dioxopiperidin-3-yl)-1-oxoisoindolin-4-yl)piperidin-4-yl)ethoxy)-N-(2-((R)-1-methylpyrrolidin-2-yl)-1H-pyrrolo[3,2-c]pyridin-6-yl)nicotinamide] | ≤ 100 | A (Category A: A ≥ 75% degradation) | A (Category A: A ≥ 75% degradation) | A (Category A: A ≥ 75% degradation) |
| CN1CCC[C@@H]1c1[nH]c2cc(NC(=O)c3ccc(CCCC#Cc4cccc5c4CN(C4CCC(=O)NC4=O)C5=O)cc3)ncc2c1Cl (stereo partly drawn) [Example 100, N-(3-chloro-2-((R)-1-methylpyrrolidin-2-yl)-1H-pyrrolo[3,2-c]pyridin-6-yl)-4-(5-(2-(2,6-dioxopiperidin-3-yl)-1-oxoisoindolin-4-yl)pent-4-yn-1-yl)benzamide] | ≤ 100 | A (Category A: A ≥ 75% degradation) | A (Category A: A ≥ 75% degradation) | A (Category A: A ≥ 75% degradation) |
| CN1CCC[C@@H]1c1cc2cnc(NC(=O)c3cc(F)c(CCCCC#Cc4cccc5c4CN(C4CCC(=O)NC4=O)C5=O)c(F)c3)cc2[nH]1 (stereo partly drawn) [Example 156, 4-(6-(2-(2,6-dioxopiperidin-3-yl)-1-oxoisoindolin-4-yl)hex-5-yn-1-yl)-3,5-difluoro-N-(2-((R)-1-methylpyrrolidin-2-yl)-1H-pyrrolo[3,2-c]pyridin-6-yl)benzamide] | ≤ 100 | A (Category A: A ≥ 75% degradation) | A (Category A: A ≥ 75% degradation) | A (Category A: A ≥ 75% degradation) |
| CN1CCC[C@@H]1c1cc2cnc(NC(=O)c3ccc(OCC#Cc4cccc5c4n(C)c(=O)n5C4CCC(=O)NC4=O)cc3)cc2[nH]1 (stereo partly drawn) [Example 66, 4-((3-(1-(2,6-dioxopiperidin-3-yl)-3-methyl-2-oxo-2,3-dihydro-1H-benzo[d]imidazol-4-yl)prop-2-yn-1-yl)oxy)-N-(2-((R)-1-methylpyrrolidin-2-yl)-1H-pyrrolo[3,2-c]pyridin-6-yl)benzamide] | ≤ 100 | A (Category A: A ≥ 75% degradation) | A (Category A: A ≥ 75% degradation) | A (Category A: A ≥ 75% degradation) |
| CN1CCC[C@@H]1c1[nH]c2cc(NC(=O)c3ccc(CCCCC#Cc4cccc5c4CN(C4CCC(=O)NC4=O)C5=O)cc3F)ncc2c1Cl (stereo partly drawn) [Example 113, N-(3-chloro-2-((R)-1-methylpyrrolidin-2-yl)-1H-pyrrolo[3,2-c]pyridin-6-yl)-4-(6-(2-(2,6-dioxopiperidin-3-yl)-1-oxoisoindolin-4-yl)hex-5-yn-1-yl)-2-fluorobenzamide] | ≤ 100 | A (Category A: A ≥ 75% degradation) | A (Category A: A ≥ 75% degradation) | A (Category A: A ≥ 75% degradation) |
